The target in series [1] is PDE10 from pig striatum (Sus scrofa, UniProt A0A287B941). Nature of the series: Inhibition of PDE10 from pig striatum (Method A / Method B), [3H]-cAMP SPA. Format: biochemical. The protocol:
Striatum from male Wistar rats (180-200 g), male hybrid pigs (150 kg) and male guinea pigs (CRL (HA), 500 g) respectively were collected and frozen at −70° C. […] The supernatant is called the cytosolic fraction and was removed and stored on ice. The pellet was resuspended in the same buffer, but containing 1% Triton and incubated for 45 min at 4° C. Both fractions were independently applied onto a 5 ml Hi Trap™ QHP column at the Äkta-FPLC. After washing the columns the bound PDE protein was eluted with an increasing sodium chloride gradient (0 mM-500 mM sodium chloride) in 50 mM Tris/Mg-buffer at 4° C. for the cytosolic fraction and in the presence of 1% Triton for the membrane fraction. […] The fractions with PDE10-activity were pooled and frozen in aliquots until use at −20° C. PDE10 activity was determined in a one step procedure in microtiter plates. The reaction mixture of 100 μl contained 50 mM Tris-HCl/5 mM MgCl2 buffer (pH=7.4) (Sigma, Deisenhofen, Germany; Merck, Darmstadt, Germany) 0.1 μM [^3H]-cAMP (Amersham, Buckinghamshire, UK) and the enzyme. Nonspecific activity was tested without the enzyme. The reaction was initiated by addition of the substrate solution and was carried out at 37 ° C. for 30 minutes. Enzymatic activity was stopped by addition of 25 μl YSi-SPA-beads (Amersham-Pharmacia). One hour later the mixture was measured in a liquid scintillation counter for microtiter plates (Microbeta Trilux). To pipette the incubation mixture a robot Biomek (Fa. Beckman) is used. […] The optimal amount of enzyme in the assay has been determined and optimised for each enzyme preparation and substrate separately before using the enzyme in compound testing. For determination of IC50 values the Hill-plot, 2-parameter-model, was used. […] Striatum from male hybrid pigs (150 kg) were collected and frozen at −70° C. […] The supernatant was removed and the pellet was resuspended in the same buffer, but containing 1% Triton and incubated for 45 min at 4° C. The membrane fraction was applied onto a 5 ml Hi Trap™ QHP column at the Äkta-FPLC. After washing the column the bound PDE protein was eluted with an increasing sodium chloride gradient (0 mM-500 mM sodium chloride) in 50 mM Tris/Mg-buffer at 4° C. in the presence of 1% Triton. […] The fractions with PDE10-activity were pooled and frozen in aliquots until use at −20° C. PDE10 activity was determined in a one step procedure in microtiterplates. The reaction mixture of 100 μl contained 50 mM Tris-HCl/5 mM MgCl2 buffer (pH=7.4) (Sigma, Deisenhofen, Germany; Merck, Darmstadt, Germany) 0.1 μM [3H]-cAMP (Amersham, Buckinghamshire, UK) and the enzyme. Nonspecific activity was tested without the enzyme. The reaction was initiated by addition of the substrate solution and was carried out at 37° C. for 30 minutes. Enzymatic activity was stopped by addition of 25 μl YSi-SPA-beads (Amersham-Pharmacia). One hour later the mixture was measured in a liquid scintillation counter for microtiterplates (Microbeta Trilux). To pipette the incubation mixture a robot Biomek (Fa. Beckman) is used. […] The optimal amount of enzyme in the assay has been determined and optimised for each enzyme preparation before using the enzyme in compound testing. For determination of IC50 values the Hill-plot, 2-parameter-model, was used.

Series [2] deals with T1, human recombinant PDE10A (Homo sapiens, UniProt Q9Y233).
T1 construct: made in house; host or cells: SF21 insect cells (baculovirus)
Description: Inhibition of human recombinant PDE10A (Method B), [3H]-cAMP SPA. It is filed as biochemical. To be noted: read-out: PDE10 inhibition IC50 PDE10A human. The protocol: The gene was than inserted into a baculovirus vector, ligated with the baculovirus DNA. The enzyme-protein was expressed in SF21-cells. The enzyme was isolated from these cells by harvesting the cells by a centrifugation at 200 g to collect the cells. The cells were resuspended in 50 mM Tris-HCl/5 mM MgCl2 buffer (pH=7.4) and lysed by a sonication of the cells. The cytosolic PDE10A was obtained by a centrifugation at 48000 g for 1 h in the supernatant and stored at −70 ° C. PDE10 activity was determined in a one step procedure in microtiterplates. […] Nonspecific activity was tested without the enzyme. The reaction was initiated by addition of the substrate solution and was carried out at 37° C. for 30 minutes. Enzymatic activity was stopped by addition of 25 μl YSi-SPA-beads (Amersham-Pharmacia). One hour later the mixture was measured in a liquid scintillation counter for microtiterplates (Microbeta Trilux). To pipette the incubation mixture a robot Biomek (Fa. Beckman) is used. […] For determination of IC50 values the Hill-plot, 2-parameter-model, was used.

Series [3] concerns apomorphine-induced stereotypies. Conditions: rats; cited from earlier work.
For series [4], the system named is haloperidol-induced catalepsy. Conditions: rats; cited from earlier work.
Series [5] concerns dopamine concentration in rat brain. Conditions: cited from earlier work.

Some results are limits rather than exact numbers.

The term IC50 denotes the concentration needed to halve the response being measured. The melting point is the temperature of the solid-liquid transition.

T1 sequence (Q9Y233 1-779 isoform Q9Y233-1): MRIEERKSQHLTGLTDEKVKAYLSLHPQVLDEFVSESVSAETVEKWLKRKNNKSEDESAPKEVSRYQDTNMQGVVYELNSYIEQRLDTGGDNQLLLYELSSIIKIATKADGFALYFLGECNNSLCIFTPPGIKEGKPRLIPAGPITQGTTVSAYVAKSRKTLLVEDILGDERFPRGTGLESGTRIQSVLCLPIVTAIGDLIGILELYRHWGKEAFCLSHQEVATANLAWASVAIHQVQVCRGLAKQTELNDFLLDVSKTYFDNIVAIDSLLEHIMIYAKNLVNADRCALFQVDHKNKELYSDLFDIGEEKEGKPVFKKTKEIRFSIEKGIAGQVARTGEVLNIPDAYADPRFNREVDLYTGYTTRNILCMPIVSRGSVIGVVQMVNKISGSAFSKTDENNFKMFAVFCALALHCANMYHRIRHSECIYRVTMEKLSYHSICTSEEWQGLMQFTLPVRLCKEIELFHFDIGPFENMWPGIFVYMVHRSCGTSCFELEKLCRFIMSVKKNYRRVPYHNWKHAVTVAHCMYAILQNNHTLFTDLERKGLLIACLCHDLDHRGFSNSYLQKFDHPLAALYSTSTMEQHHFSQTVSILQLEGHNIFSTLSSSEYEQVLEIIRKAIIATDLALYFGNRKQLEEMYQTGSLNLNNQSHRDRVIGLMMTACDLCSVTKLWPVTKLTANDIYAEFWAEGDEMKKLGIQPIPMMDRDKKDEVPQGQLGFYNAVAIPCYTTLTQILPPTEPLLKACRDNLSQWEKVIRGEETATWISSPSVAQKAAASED

Molecule `CCCc1nc(C)c2c(C#N)nc3ccc(F)cc3n12` [Example 1, 8-Fluoro-3-methyl-1-propyl-imidazo(1,5-a)quinoxaline-4-carbonitrile] gave an IC50 in series [1] of 0.01 to 0.1 µM.
Same read-out and setting: the value for `CCc1nc(C)c2c(NS(C)(=O)=O)nc3ccccc3n12` [Example 2, N-(1-Ethyl-3-methyl-imidazo(1,5-a)quinoxalin-4-yl)-methanesulfonamide] was not below 0.1 µM.
The molecule `CCc1nc(C)c2c(NS(C)(=O)=O)nc3ccc(F)cc3n12` [Example 3, N-(1-Ethyl-8-fluoro-3-methyl-imidazo(1,5-a)quinoxalin-4-yl)-methanesulfonamide] showed a melting point of 268 to 269 °C. The 50% inhibitory concentration (IC50) in series [1] was not below 0.1 µM.
The matching figures for `CCCc1nc(C)c2c(NS(C)(=O)=O)nc3ccc(F)cc3n12` [Example 4, N-(8-Fluoro-3-methyl-1-propyl-imidazo(1,5-a)quinoxalin-4-yl)-methanesulfonamide]: 277 to 280 °C and 0.01 to 0.1 µM.
`Cc1nc(-c2ccccc2Cl)n2c1c(NS(C)(=O)=O)nc1ccc(F)cc12` [Example 5, N-(1-(2-Chlorphenyl)-8-fluoro-3-methyl-imidazo(1,5-a)quinoxalin-4-yl)-methanesulfonamide] displayed an IC50 in series [1] of 0.01 to 0.1 µM.
The molecule `Cc1nc(C2CCCCC2)n2c1c(NS(C)(=O)=O)nc1ccc(F)cc12` [Example 6, N-(1-Cyclohexyl-8-fluoro-3-methyl-imidazo(1,5-a)quinoxalin-4-yl)-methanesulfonamide] had a melting point of 291 to 293 °C. This molecule also yielded an IC50 in series [1] of 0.01 to 0.1 µM.
Taken in the same sequence, the figures for `CCc1nc(C)c2c(NS(C)(=O)=O)nc3ccc(N4CCCCC4)cc3n12` [Example 7, N-[1-Ethyl-3-methyl-8-(piperidin-1-yl)-imidazo(1,5-a)quinoxalin-4-yl]-methanesulfonamide] were 223 to 227 °C and 0.01 to 0.1 µM.
Turning to `COc1ccc2nc(C#N)c3c(C)nc(C4CCCCC4)n3c2c1` [Example 8, 1-Cyclohexyl-8-methoxy-3-methyl-imidazo[1,5-a]quinoxaline-4-carbonitrile], the melting point fell in the range of 244 to 248 °C. In addition, the IC50 in series [1] fell in the range of 0.01 to 0.1 µM. Also, the IC50 in series [2] is not below 0.1 µM.
The molecule `CCCc1nc(C)c2c(NS(C)(=O)=O)nc3ccc(OC)cc3n12` [Example 9, N-(8-Methoxy-3-methyl-1-propyl-imidazo[1,5-a]quinoxalin-4-yl)-methanesulfonamide] displayed a melting point of 234 to 237 °C. Further, the IC50 in series [2] fell in the range of 0.01 to 0.1 µM.
The matching figures for `COc1ccc2nc(NS(C)(=O)=O)c3c(C)nc(C4CCCCC4)n3c2c1` [Example 10, N-(1-Cyclohexyl-8-methoxy-3-methyl-imidazo[1,5-a]quinoxalin-4-yl)-methanesulfonamide]: 287 to 288 °C and 0.01 to 0.1 µM.
The matching figures for `CCCc1nc(C)c2c(NS(C)(=O)=O)nc3ccc(OCC4CC4)cc3n12` [Example 11, N-(8-Cyclopropylmethoxy-3-methyl-1-propyl-imidazo[1,5-a]quinoxalin-4-yl)-methanesulfonamide]: 240 to 241 °C and not above 0.01 µM.
Turning to `Cc1nc(C2CCCCC2)n2c1c(NS(C)(=O)=O)nc1ccc(OCC3CC3)cc12` [Example 12, N-(1-Cyclohexyl-8-cyclopropylmethoxy-3-methyl-imidazo[1,5-a]quinoxalin-4-yl)-methanesulfonamide], the melting point lay within 259 to 261 °C. Besides, the IC50 in series [1] was not above 0.01 µM. In addition, the IC50 in series [2] fell in the range of 0.01 to 0.1 µM.
The matching figures for `Cc1nc(C2CCCCC2)n2c1c(NS(C)(=O)=O)nc1ccc(OCc3ccc4ccccc4n3)cc12` [Example 13, N-[1-Cyclohexyl-3-methyl-8-(quinolin-2-ylmethoxy)-imidazo[1,5-a]quinoxalin-4-yl]-methanesulfonamide]: 255 to 258 °C, not above 0.01 µM and not above 0.01 µM.
The matching figures for `COc1ccc2c(c1)nc(NS(C)(=O)=O)c1c(C)nc(-c3ccccc3Cl)n12` [Example 14, N-[1-(2-Chloro-phenyl)-7-methoxy-3-methyl-imidazo[1,5-a]quinoxalin-4-yl]-methanesulfonamide]: 277 to 278 °C, 0.01 to 0.1 µM and 0.01 to 0.1 µM.
The matching figures for `CCCc1nc(C)c2c(NS(C)(=O)=O)nc3cc(OC)ccc3n12` [Example 15, N-(7-Methoxy-3-methyl-1-propyl-imidazo[1,5-a]quinoxalin-4-yl)-methanesulfonamide]: 222 to 226 °C, 0.01 to 0.1 µM and 0.01 to 0.1 µM.
`CCc1nc(C)c2c(Cl)nc3ccc(N4CCCCC4)cc3n12` [Example B2, 4-Chloro-1-ethyl-3-methyl-8-piperidin-1-yl-imidazo(1,5-a)quinoxaline] yielded a melting point of 160 to 163 °C. In series [1], the IC50 was in the range of 0.01 to 0.1 µM.
The matching figures for `CCc1nc(C)c2c(Cl)nc3ccccc3n12` [Example B3]: 125 to 128 °C and 0.01 to 0.1 µM.
Taken in the same sequence, the figures for `CCCc1nc(C)c2c(Cl)nc3ccc(F)cc3n12` [Example B6, 4-Chloro-8-fluoro-3-methyl-1-propyl-imidazo(1,5-a)quinoxaline] were 133 to 135 °C and 0.01 to 0.1 µM.
Taken in the same sequence, the figures for `Cc1nc(C2CCCCC2)n2c1c(Cl)nc1ccc(F)cc12` [Example B7] were 205 to 210 °C and 0.01 to 0.1 µM.
`Cc1nc(C2CCCCC2)n2c1c(Cl)nc1ccc(Cl)cc12` [Example B9] came in with a melting point of 244 to 248 °C. In series [1], this molecule displayed an IC50 not below 0.1 µM.
`COc1ccc2nc(Cl)c3c(C)nc(C4CCCCC4)n3c2c1` [Example B11] gave a melting point of 212 to 215 °C. For the same molecule, in series [2], the half-inhibitory concentration (IC50) fell in the range of 0.01 to 0.1 µM.
Taken in the same sequence, the figures for `CCCc1nc(C)c2c(Cl)nc3ccc(OCC4CC4)cc3n12` [Example B12] were 103 to 105 °C and 0.01 to 0.1 µM.
Taken in the same sequence, the figures for `Cc1nc(C2CCCCC2)n2c1c(Cl)nc1ccc(OCC3CC3)cc12` [Example B13] were 165 to 168 °C and not below 0.1 µM.
The molecule `CCCc1nc(C)c2c(Cl)nc3cc(OC)ccc3n12` [Example B15] had a melting point of 154 to 159 °C. For the same molecule, the IC50 in series [2] is 0.01 to 0.1 µM.
As for `COc1ccc(Cc2nccc3cc(OC)c(OC)cc23)cc1OC` [Papaverine], in series [3], the “effect on apomorphine-induced stereotypies” value is listed as “reduces apomorphine-induced stereotypies”. Moreover, the “effect on haloperidol-induced catalepsy” value in series [4] is reported as “increases haloperidol-induced catalepsy”. In addition, the “effect on dopamine concentration in rat brain” value in series [5] is recorded as “reducing dopamine concentration”.

The values above are taken from patent US20090143391A1, “Aryl and heteroaryl fused imidazo [1,5-a] pyrazines as inhibitors of phosphodiesterase 10” (priority 2007, published 2009).
